One data set has as its system B16F10. Description: MTT antiproliferative test, B16F10. It is filed as cell-based. The note with it: Mus musculus, B16-F10, read-out: IC50, inhibition of proliferation. The procedure: (§1) The lines MDAMB-435 and A431 are seeded at a density of 3000 cells per well in 96-well plates. After 24 hours, compounds 4.2a and 5.6d resuspended in 100% DMSO are added at concentrations of 0-0.001-0.010-0.1-1-10-50 μM for a final constant amount of DMSO of 0.3%. The cultures are maintained for a further 72 hours and an MTT colorimetric test is then performed. 100 μl of a solution of MTT at 5 mg/ml in PBS are added to the culture medium, which is left to incubate for 3 hours. The culture medium is removed and the cells are lyzed by adding 100 μL of a 4 mM HCl solvent, 0.1% Nondet P-40 (NP40) in isopropanol. The yellow tetrazolium MTT salt (3-(4,5-dimethylthiazol-2-yl)-2,5-diphenyl tetrazolium bromide), when it is reduced by the mitochondrial succinate dehydrogenase of active live cells, forms a blue-violet formazan product. The medium then changes from yellow to blue-violet. The intensity of this coloration at 590 nm is proportional to the number of live cells present during the test and gives an indication of the metabolic activity of these cells.
(§2) Table 1 gives the concentration values for 50% inhibition of proliferation (IC50) for compounds 4.2a and 5.6d on lines derived from bowel cancer (CaCo2), skin cancer (A431, MDAMB-435, B16F10), breast cancer (MDAMB-431), […] (HuH7), prostate cancer (DU145) and brain cancer (SNB75, Gli4, Gli7).

The test system of another data set is melanoma line MDAMB-435. Description: Boyden chamber migration test, MDAMB-435. The class given is cell-based, human. Particulars: for Ki: 24 hours, read-out: Inhibition constant Ki, migration. The procedure:
The effects of compounds 3.48a, 4.2a and 5.6d on the migration of cancer cells (human glioblastoma line SNB75 or primary culture of human glioblastoma Gli4F1, on the one hand, and MDAMB 435 and A431 on the other hand), were determined by performing a standard migration test in a Boyden chamber (treatment of the cells for 24 hours).
For this test, the compounds were dissolved in vitro and used in culture in 0.3% of DMSO. The interior of the inserts was covered with the extracellular matrix protein studied (laminin-1, vitronectin or fibronectin). The cells pretreated at various concentrations and untreated (controls) were deposited in the inserts covered with said protein at a rate of 50 000 cells/500 μl/insert in a medium containing 0.1% of BSA (bovine serum albumin).
500 μl of medium containing 10% fetal calf serum were then placed in each well of a Companion plate so as to allow the formation of a chemotactic gradient across the porous membrane. After 24 hours of migration in the incubator at 37° C., the supernatent was removed and the inserts rinsed with PBS on each face. The cells were counted with a microscope (Zeiss Axiophot, magnification ×200). This gives a percentage of migration relative to the untreated cells.
Table 2 below gives, for compound 3.48a, the values for the inhibition constants (Ki) for the migration of a human GBM line (SNB75), of GBM stem cell lines (Gli4, Gli7) and of a breast cancer line MDAMB231, in a Boyden chamber, on various extracellular matrix protein supports. Tables 3 and 4 below give, for compounds 4.2a and 5.6d, the values of the inhibition constants (Ki) for the migration of a melanoma line (MDAMB-435) or of an epidermoid cancer line (A431), in a Boyden chamber, on various extracellular matrix protein supports. The inhibitory effect depends on the line and the stem cells used, but also on the extracellular matrix protein support used.

A further data set concerns Gli7. Description: MTT antiproliferative test, Gli7. The class given is cell-based. Particulars: Homo sapiens, read-out: IC50, inhibition of proliferation. Here is the method: (§3) Several cancer cell lines were used for the in vivo or in vitro biological tests: • SNB75 is a human glioblastoma line derived from a primary culture, i.e. derived from a primary malignant cancer tumor. It forms part of the panel of 59 cancer lines referenced by the NCI. Its Cosmic reference number published by the Welcome Trust Sanger Institute is 905982. This line was supplied by a person (M.D. Ph.D of the department of “Radiation Oncology”, Stanford University Medical Center). It was cultured in Ham's F-12 and DMEM (1/1) supplemented with 10% fetal bovine serum. The experiments were performed with cells in the exponential growth phase. • Gli4 (or Gli4F11) and Gli7 are cultures of cancer strain cells derived from human glioblastomas (primary cultures). These lines are CD133^+, CD15^+ which are multipotent and tumorigenic in animals. They were established by J. P. Hugnot (INM INSERM U-1051 Eq. 4), and described in Guichet, P. O. et al, Glia 2013, 61(2), 225-239; • C6 is a rat glioblastoma line. It is referenced in the ATCC under the reference CCL-107. • MDAMB-435 is a melanoma line derived from a mammary melanoma. It forms part of the panel of 59 cancer lines referenced by the NCI. It is referenced at the ATCC under the reference HTB-129. It was cultured in Ham's F-12 and DMEM (1/1) supplemented with 10% fetal bovine serum. […]

The test system of another data set is MDAMB-435 melanoma line. The experiment in a line: MTT antiproliferative test, MDAMB-435. Particulars: Homo sapiens, MDA-MB-435, 72 hours, read-out: IC50, inhibition of proliferation. It is filed as cell-based. Here is the method:
as §1, §2

A short description of the next data set: Acute in vivo toxicity. Particulars: healthy mice; 50, 25, 10, 5 and 1 mg/kg; maximum dose 50 mg/kg. Here is the method:
Studies of the acute toxicity of compounds 3.48a and 4.2a were performed on healthy mice for a concentration range of 50, 25, 10, 5 and 1 mg/kg.

The subject of the next data set is C6 glioblastoma line. The experiment in a line: MTT antiproliferative test, C6. It is filed as cell-based. The note with it: Rattus norvegicus, read-out: IC50, inhibition of proliferation. Here is the method: as §3
The subject of the next data set is DU145. The experiment in a line: MTT antiproliferative test, DU145. It is filed as cell-based. The note with it: Homo sapiens, DU-145, read-out: IC50, inhibition of proliferation. The procedure: as §1, §2
For a further data set, the system named is CaCo2. The experiment in a line: MTT antiproliferative test, CaCo2. The class given is cell-based. Particulars: Homo sapiens, Caco-2, read-out: IC50, inhibition of proliferation. Here is the method:
as §1, §2

Another data set has as its system A431 line. The experiment in a line: MTT antiproliferative test, A431. The class given is cell-based, human. The note with it: Homo sapiens, A-431; A431; 72 hours, MTT; read-out: IC50, inhibition of proliferation. The procedure: as §1, §2
Data set [1] in a line: Solubility / formulation behaviour. It is filed as physicochemical. Here is the method: The following two formulations are particularly suited to compounds 3.48a and 4.2a and allow their in vivo administration, at concentrations of about 20-100 mg/kg, intravenously: […]

Like-named read-outs stand apart in the source and are kept apart here.

As for `CC1(C)O[C@H]2[C@@H]([C@H]3COC(C)(C)O3)O[P@](=O)(c3ccccc3)[C@@H](OC(=O)c3ccccc3)[C@H]2O1` [Compound 4.2a, (SPRSRR)-3-benzoate-4-(2,2-dimethyl-[1,3]dioxolan-4-yl)-2,2-dimethyl-2-oxo-2-phenyl-tetrahydro-2λ^5-[1,2]oxaphosphinane], the IC50 with B16F10 was 13500 nM; with melanoma line MDAMB-435 (Homo sapiens, MDA-MB-435, on fibronectin or vitronectin, read-out: Concentration for a 50% decrease in migration of the cancer cells), 10 to 100 nM; in the data set with Gli7 it was 2710 nM; with MDAMB-435 melanoma line, 660 nM; with C6 glioblastoma line, 8510 nM; in the data set on DU145, > 100000 nM. The values for the IC50 with CaCo2 and with A431 line were > 100000 nM and 4350 nM, respectively. In addition, the results for the Ki at melanoma line MDAMB-435 (support Fibronectin), at melanoma line MDAMB-435 (support Laminin) and on melanoma line MDAMB-435 (support Vitronectin) were 33 nM, 34 nM and 61 nM, respectively. For the same compound, the “Mortality, acute toxicity” value in the data set “Acute in vivo toxicity” is “No mortality was observed”. Moreover, the Complexation in cyclodextrins result in [1] is reported as “non-complexible in cyclodextrins”. Also, the Solubility entry in [1] (water, water-soluble solvents) is “insoluble in water, in numerous water-soluble solvents”.

These data come from patent publication US20150376216A1, “SUGAR-ANALOG PHOSPHORUS-CONTAINING HETEROCYCLES HAVING AN ANTI-METASTATIC ACTIVITY” (CENTRE NATIONAL DE LA RECHERCHE SCIENTIRIQUE, priority 2013, published 2015).
